Source: PubChem BioAssay (NCI)
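All cell lines were grown in 96-well plates and treated with compound for 48 hours. At the TGI there is no net growth.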

Legend:
Experiment in all cases: inhibition of tumour cell growth, NCI panel, 48 h
[1] = system: HT29 colon
[2] = system: A549 NSCLC
[3] = system: SK-OV-3 ovarian
[4] = system: MDA-N
[5] = system: MDA-MB-231 breast
[6] = system: RPMI-8226 leukemia
[7] = system: MOLT-4 leukemia
[8] = system: HL-60(TB) leukemia
[9] = system: TK-10 renal
[10] = system: HCC-2998 colon
[11] = system: U251 CNS
[12] = system: UACC-257 melanoma
[13] = system: SN12C renal
[14] = system: SNB-75 CNS
[15] = system: NCI-H23 lung
[16] = system: SR leukemia
[17] = system: K-562 leukemia
[18] = system: NCI-H226 lung
[19] = system: A498 renal
[20] = system: UO-31 renal

Structure (SMILES)	TGI [1]	TGI [2]	TGI [3]	TGI [4]	TGI [5]	TGI [6]	TGI [7]	TGI [8]	TGI [9]	TGI [10]	TGI [11]	TGI [12]	TGI [13]	TGI [14]	TGI [15]	TGI [16]	TGI [17]	TGI [18]	TGI [19]	TGI [20]
COC(=O)/C=C(/C(=O)OC)c1cc2ccc3c([nH]c4ccccc43)c(C)c-2c1	8.9 µM	> 100 µM	36.9 µM	9.9 µM	15.1 µM	25.2 µM	11.5 µM	12.5 µM	> 100 µM	13 µM	18.1 µM	28.2 µM	27 µM	59.2 µM	24.7 µM	8.59 µM	7.09 µM	19.8 µM	23.5 µM	17.1 µM
N#CCOc1ccc(/C=C/C(=O)c2ccc(Cl)cc2)cc1	> 100 µM	> 100 µM	37.3 µM	> 100 µM	85.5 µM	> 100 µM	> 100 µM	> 100 µM	74.5 µM	98.8 µM	99.3 µM	> 100 µM	> 100 µM	37.2 µM	76.3 µM	> 100 µM	> 100 µM	> 100 µM	49.5 µM	88.6 µM
Cn1cc(S(=O)(=O)NC(=O)Nc2ccc(Cl)cc2)c2ccccc21	> 100 µM	> 100 µM	> 100 µM	> 100 µM	> 100 µM	> 100 µM	> 100 µM	> 100 µM	55.2 µM	> 100 µM	> 100 µM	> 100 µM	> 100 µM	> 100 µM	> 100 µM	> 100 µM	> 100 µM	> 100 µM	> 100 µM	> 100 µM
C[N+](C)(C)/N=C/c1ccc(O)c(O)c1	> 100 µM	> 100 µM	> 100 µM	> 100 µM	> 100 µM	> 100 µM	> 100 µM	> 100 µM	> 100 µM	> 100 µM	> 100 µM	> 100 µM	> 100 µM	> 100 µM	> 100 µM	> 100 µM	> 100 µM	> 100 µM	> 100 µM	> 100 µM
CC1CCCCN1CC(=O)c1ccc2c(c1)Sc1ccccc1O2 (stereo not given)	22.7 µM	30.7 µM	31.6 µM	32.2 µM	54.6 µM	> 100 µM	> 100 µM	47 µM	42.5 µM	41.3 µM	31.9 µM	39 µM	37.9 µM	22.9 µM	30.3 µM	47.8 µM	> 100 µM	26.4 µM	38.6 µM	25.7 µM
c1cc2nnc1SCCCSc1ccc(nn1)SCCCSc1ccc(nn1)SCCCS2	> 100 µM	> 100 µM	> 100 µM	> 100 µM	> 100 µM	> 100 µM	> 100 µM	> 100 µM	> 100 µM	> 100 µM	> 100 µM	> 100 µM	> 100 µM	83.4 µM	> 100 µM	> 100 µM	> 100 µM	> 100 µM	> 100 µM	> 100 µM
CCOC(=O)CSc1nnc(CSc2nc(-c3ccccc3)c(-c3ccccc3)[nH]2)n1-c1ccccc1	> 100 µM	> 100 µM	43.8 µM	> 100 µM	> 100 µM	> 100 µM	> 93.8 µM	98.8 µM	31.9 µM	37.1 µM	> 100 µM	> 67.4 µM	34.9 µM	> 100 µM	> 100 µM	> 100 µM	> 100 µM	> 73.6 µM	33.2 µM	38.9 µM
CC(C)COC(=O)OC(=O)c1ccc(N(C)Cc2cnc3nc(N)nc(N)c3n2)cc1	> 100 µM	> 100 µM	> 100 µM	> 100 µM	> 100 µM	> 100 µM	> 100 µM	> 100 µM	> 100 µM	> 100 µM	> 100 µM	> 100 µM	> 100 µM	> 100 µM	> 100 µM	> 100 µM	> 100 µM	> 100 µM	> 100 µM	> 100 µM
CCOC(=O)NC(C(=O)OCC)(N1CCN(c2cc3c(cc2F)c(=O)c(C(=O)O)cn3CC)CC1)C(F)(F)F (stereo not given)	> 100 µM	> 100 µM	> 100 µM	> 100 µM	> 100 µM	> 100 µM	> 100 µM	> 100 µM	> 100 µM	> 100 µM	> 100 µM	> 100 µM	> 100 µM	> 100 µM	> 100 µM	> 100 µM	> 100 µM	> 100 µM	> 100 µM	> 100 µM
NC(=O)C(=CNC(=S)Nc1ccc(Cl)c(Cl)c1)C(N)=O	> 100 µM	> 100 µM	> 100 µM	> 100 µM	> 100 µM	> 100 µM	> 100 µM	> 100 µM	> 100 µM	> 100 µM	> 100 µM	> 100 µM	> 100 µM	> 100 µM	> 100 µM	> 100 µM	> 100 µM	> 100 µM	> 100 µM	> 73.6 µM
CSc1c(C(=O)Nc2ccc(C)cc2)c(N)n(N)c(=O)c1C#N	> 100 µM	> 100 µM	> 100 µM	> 100 µM	> 100 µM	> 100 µM	> 100 µM	> 100 µM	> 100 µM	> 100 µM	> 100 µM	> 100 µM	> 100 µM	> 100 µM	> 100 µM	> 100 µM	> 100 µM	> 100 µM	> 100 µM	> 100 µM
O=C(NNCC(F)(F)F)c1ccncc1	> 100 µM	> 100 µM	> 100 µM	> 100 µM	> 100 µM	> 100 µM	> 100 µM	> 100 µM	> 100 µM	> 100 µM	> 100 µM	> 100 µM	> 100 µM	> 100 µM	> 100 µM	> 100 µM	> 100 µM	> 100 µM	> 100 µM	> 100 µM
CN(C)CC1CCC/C(=C\c2ccc(OC(=O)/C=C/c3ccccc3)cc2)C1=O (stereo not given)	3.75 µM	8.4 µM	> 50.9 µM	6.28 µM	8.2 µM	6.88 µM	> 37.1 µM	> 100 µM	3.76 µM	> 28.1 µM	3.84 µM	21.2 µM	4.43 µM	17 µM	4.04 µM	> 100 µM	> 42.6 µM	9.54 µM	23.2 µM	3.66 µM
